The source of these data is US7303876B2 (Applera Corporation, priority 2000, dated 2007).

Data set [1] deals with Liver tissue. Nature of the data set: Liver tissue disaggregation by 1% surfactant with or without Proteinase K at 60° C. The settings on record: for Tissue Disaggregation: 60° C., 1% surfactant. The arrangement: Tissue Disaggregation: scale not given here. On the procedure: To evaluate the ability of various cationic surfactants to increase the digestion of tissue by Proteinase K, liver slices were digested using reaction compositions including one of the sixteen surfactants (shown in Table 4), both with and without Proteinase K. The reducing agent dithiothreitol (DTT) was included to evaluate the effect of reducing conditions on tissue digestion. […] One of the sixteen surfactants was added to one pair of tubes to yield a final concentration of 1% surfactant. The seventeenth pair of tubes served as non-surfactant controls. One milligram (mg) of Proteinase K was added to one tube of each of the seventeen pairs.
PK=presence or absence of Proteinase K in the reaction composition; Y=Proteinase K was present; N=Proteinase K was not present in the reaction composition.

The next data set relates to slices of liver. Nature of the data set: Maceration of liver slices by reaction compositions at 65° C. The settings on record: 65° C. As for the experimental part:
Initially, a series of reaction compositions were analyzed for their ability to disaggregate a biological sample, e.g., slices of liver. These reaction compositions comprised 100 mM Tris, pH 8.0, 20 mM dithiothreitol (DTT), and optionally,1 mg/ml Proteinase K, surfactants (e.g., cationic, nonionic and anionic detergents), chaotropes, or the additive 1-methyl-2-pyrollidinone (Sigma). Each reaction compositions was placed in a tube with a slice of liver and then incubated at 65° C. The tubes were observed periodically to determine which reaction compositions were able to efficiently macerate the sample.

In data set [2] the test system is Liver tissue. In words: Nucleic acid release from liver slices, pH 6, 45° C., 20 minutes, surfactants and additives. The settings on record: with Proteinase K, FIG. 5. As for the experimental part:
The results from Example 6 indicate that there was significant nuclease activity present in the sample. To reduce the nucleolytic activity of endogenous RNAses, the pH of the reaction composition was lowered to approximately 6.0 and the incubation temperature was decreased to 45° C. Several additives, including phenylglyoxal (Aldrich #14243-3), 1-methyl-2-pyrolidinone, RNA Later (Ambion, #7020), and Streck Tissue Fixitive (Streck Laboratories, #265138) were also tested to evaluate their effect on endogenous RNAse activity in these reaction compositions. Phenylglyoxal is known to reduce ribonuclease activity (see Takahashi, The Structure And Funtion Of Ribonuclease T1. XI. Modification Of The Single Arginine Residue In Ribonuclease T1 By Phenylglyoxal And Glyoxal, J. Biochem (Japan) 68:659-664, 1970). The product literature for RNA Later claims that the reagent stabilizes RNA in tissue and Streck Tissue Fixative is believed to preserve the integrity of tissue.
Slices of liver tissue (100-200 mg/sample) were placed into nineteen Eppendorf tubes. Four hundred microliters of a reaction composition comprising 100 mM MES (Sigma #M-5287), pH 6, 20 mM CaCl2, and 1 mg Proteinase K, was added to each tube.
The tubes were incubated at 45° C. for 20 minutes with mixing (Eppendorf Thermomixer, Model 5436). […] Undigested tissue fragments were removed by centrifugation using the methods the same as or similar to those discussed in Example 6. The supernatant was phenol extracted (saturated with 10 mM Tris HCl , pH 8, 1 mM EDTA; Sigma #P-4557), isopropanol precipitated (Aldrich #19076-4), and ethanol washed using methods the same as or similar to those described in Example 6.

Data set [3] is described as follows: Solubility of surfactants (0.5% Sarkosyl, LDS, SDS, CTAB; 5.0% others) in salt solutions. On the procedure: In certain instances, the solubility of detergents in high salt may relate to on the composition of the salt and the detergent itself. A mixing experiment was performed to examine the solubility of a variety of anionic, cationic, and nonionic surfactants in different salt compositions. […] The salt solutions contained Lil, Nal, KI, Rbl, Csl , GuSCN, GuHCl, or NaClO4, at pH 6.0 or 10.0. […] The solubility of the surfactants was scored as either soluble or insoluble. The solubility of the surfactant in the salt solution was determined initially by visual observations for cloudiness or precipitate formation. The resulting solutions were also centrifuged to verify the absence of a precipitate by the absence of a precipitate pellet.

Data set [4] concerns Liver tissue. In words: Integrity of nucleic acid released from liver slices with aurintricarboxylic acid, 55° C., 30 minutes. The settings on record: 1% surfactant, FIG. 11. On the procedure:
Slices of liver tissue (77-186 mg/sample) were placed into twenty-one Eppendorf tubes. To each tube was added 400 μL of a reaction composition comprising 50 mM MES, pH 6.0, 20 mM CaCl2, and additional components as shown in Table 10.
The tubes were incubated at 55° C. with mixing (Eppendorf Thermomixer, Model 5436) for 30 minutes. The resulting surfactant-protease complex was solubilized using methods the same as or similar to those described in Example 7. Undigested tissue fragments were removed by centrifugation using methods the same as or similar to those described in Example 7. The supernatant was phenol extracted, isopropanol precipitated and ethanol washed using methods the same as or similar to those described in Example 6.

Data set [5] concerns Liver tissue. Nature of the data set: Nucleic acid release from liver slices, pH 6, 45° C., 30 minutes, surfactants and additives. The settings on record: with either 1-methy-2-pyrolidinone or acridine orange. On the procedure: To compare CTACl to CTAB, those two surfactants were evaluated in parallel along with hexadecyltrimethylammonium bromide (HDTAB), hexadecyltrimethylammonium chloride (HDTACl), and Sarkosyl. Three additives, phenylglyoxal, acridine orange (e.g., Sigma #A6014), and 1-methyl-2-pyrolidinone, were also evaluated. Phenylglyoxal was tested to determine if it would reduce RNAse activity. […] 1-Methyl-2-pyrrolidinone was tested to see if it would enhance solubility of the sample by various reaction compositions.
Slices of liver-tissue (100-200 mg/sample) were placed into twenty-one Eppendorf tubes. Four hundred microliters of a reaction composition, comprising 100 mM MES, pH 6, 20 mM CaCl2, and 1 mg Proteinase K, was added to each tube.
The tubes were incubated at 45° C. for 30 minutes with mixing (Eppendorf Thermomixer, Model 5436). Surfactant: protease complexes were solubilized using methods the same as or similar to those described in Example 7. Remaining tissue fragments were removed by centrifugation using methods the same as or similar to those described in Example 7. The supernatant was phenol extracted, isopropanol precipitated, and ethanol washed using methods the same as or similar to those described in Example 6.

In a further data set the target is T1, Proteinase K (Parengyodontium album, UniProt P06873).
T1 construct: purchased Ambion 2546
T1 sequence (P06873 106-384): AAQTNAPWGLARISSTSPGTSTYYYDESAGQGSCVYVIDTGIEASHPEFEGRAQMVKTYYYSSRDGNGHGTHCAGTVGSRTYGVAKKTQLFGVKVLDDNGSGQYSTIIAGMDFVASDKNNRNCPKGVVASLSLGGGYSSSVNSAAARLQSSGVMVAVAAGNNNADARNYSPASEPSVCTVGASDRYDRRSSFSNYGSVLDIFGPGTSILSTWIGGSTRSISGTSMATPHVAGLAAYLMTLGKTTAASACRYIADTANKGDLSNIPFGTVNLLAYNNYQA
In words: Effect of surfactants on Proteinase K digestion of dye-labeled casein substrate. The format is biochemical. The following applies: 1% surfactant, 60° C., Proteinase K 0.005-20 μg/ml. As for the experimental part: To test the effect of cationic surfactants on the activity of Proteinase K, a series of reaction compositions were prepared as follows. Reaction compositions comprised: Casein BoDipy conjugate (1 μg, 10 ng/μL), 10 mM Tris, pH 8, 20 mM CaCl2, 1% surfactant (shown in Table 2 below) and a dilution series of Proteinase K at concentrations of 20 μg/ml, 5 μg/ml, 1.25 μg/ml, 0.31 μg/ml, 0.078 μg/ml, 0.02 μg/ml and 0.005 μg/ml. […] Reaction tubes were incubated at 60° C. in a 96-well optical plate (MicroAmp® Optical 96-Well Reaction Plate, Applied Biosystems) and the amount of released fluorescence was measured at the indicated time points using an ABI Prism 7700.

The subject of another data set is Calf thymus genomic DNA. In words: Reversal by Tween 20 of DTAB inhibition of DNA recovery from GF/B. As for the experimental part: Having identified the cationic surfactant as a major component inhibiting DNA recovery, the ability of a nonionic surfactant to reverse the inhibitory effect was examined. Calf thymus genomic DNA (8 μg) was bound to the glass fiber GF/B membrane in the presence of 0%, 1% and 4% dodecyltrimethylammonium bromide (DTAB) with increasing concentrations of Tween 20.
The binding buffer also contained 5M GuSCN, 20 mM EDTA, and 50 mM MES (pH 6.0). DNA was first eluted with 200 μl of TE followed by a separate elution with 100 μl of 0.1N NaOH. All binding and elution steps were done at ambient temperature.

For data set [6], the system named is cationic surfactant: nucleic acid precipitate. Nature of the data set: Solubilizing the cationic surfactant: nucleic acid precipitate (calf thymus DNA + 1% CTAB). The following applies: Calf thymus DNA 700 μg/ml, 100 mM Tris, pH 8, additive at final concentration.
Procedure: Calf thymus DNA (Sigma; 700 μg/ml lightly sheared using an 18 gauge hypodermic needle) was mixed with 1% CTAB in 100 mM Tris, pH 8 to form a reaction composition.
Where [7] appears, read: Fifteen Minutes Incubation, Proteinase K not present (N).
Where [8] appears, read: Fifteen Minutes Incubation, Proteinase K present (Y).
Setting [9] is: Fifty-Two Minutes Incubation, Proteinase K not present (N).
The mark [10] stands for this setting: Fifty-Two Minutes Incubation, Proteinase K present (Y).

Consider `CCCCCCCCCCCCCCCC[N+](C)(C)C.[Br-]` [CTAB, cetyltrimethylammonium bromide], for which the “Tissue Disaggregation” value stood at 0 with Liver tissue [1] (setting [7]), 4 in the data set on Liver tissue [1] (setting [8]), 0 in the data set with Liver tissue [1] (setting [9]) and 4 in the data set on Liver tissue [1] (setting [10]). In addition, the “disaggregation of the tissue sample (in words)” value is recorded as “total disaggregation” in the data set on Liver tissue [1] (combination with Proteinase K, 15 and 52 minutes); “no apparent sample disaggregation” with Liver tissue [1] (surfactant alone, no Proteinase K). For the same molecule, the “maceration of liver slice” value with slices of liver (1 mg/ml Proteinase K, 16-24 hr, additive 0.1%) amounted to 100%; with slices of liver (1 mg/ml Proteinase K, 16-24 hr, additive 1%) it was 100%; with slices of liver (1 mg/ml Proteinase K, 1 hr, additive 0.1%), 100%; in the data set with slices of liver (1 mg/ml Proteinase K, 1 hr, additive 1%), 100%. Further, the “ability to macerate the liver sample (in words)” value in the data set with slices of liver is reported as “most effectively macerated the sample”. Also, the “effect on the proteolytic activity of Proteinase K” value in the data set with slices of liver (liver slices) is “appeared to enhance the proteolytic activity of Proteinase K”. The “release of A260 absorbing material from the sample” value (“release of A260 absorbing material” for short) in the data set with Liver tissue [2] is recorded as “released A260 absorbing material”. Further, the Solubility of surfactant entry in data set [3] (pH 6) is reported as “S”. The “nucleic acid released, surfactant in reaction composition with aurintricarboxylic acid” value (from here on “nucleic acid released, surfactant”) in the data set with Liver tissue [4] is given as “released a large amount of high integrity nucleic acid”.

Take `CCCCCCCCCCCCCCCC[N+](C)(C)C.[Cl-]` [CTACl, cetyltrimethylammonium chloride]: the “release of A260 absorbing material” value in the data set on Liver tissue [2] is on record as “released A260 absorbing material”. Also, the “high molecular weight nucleic acid by gel electrophoresis” value in the data set with Liver tissue [5] is reported as “High molecular weight nucleic acid was also present”. Moreover, in the data set with Liver tissue [4], the “nucleic acid released, surfactant” value is “released a large amount of high integrity nucleic acid”.

As for `CCCCCCCCCCCCOS(=O)(=O)[O-].[Na+]` [SDS, sodium dodecyl sulfate], the “Tissue Disaggregation” value with Liver tissue [1] (setting [7]) was found to be 0; in the data set on Liver tissue [1] (setting [8]), 3; in the data set with Liver tissue [1] (setting [9]), 0; in the data set with Liver tissue [1] (setting [10]), 3. Further, the “maceration of liver slice” value in the data set on slices of liver (1 mg/ml Proteinase K, 2-5 hr, additive 1%) is recorded as 50%; in the data set on slices of liver (No Proteinase K, 2-5 hr, additive 1%), 0%. For the same molecule, the “release of A260 absorbing material” value in the data set with Liver tissue [2] is listed as “released A260 absorbing material”. On Proteinase K, the “effect on Proteinase K activity on the casein substrate” value is “enhances the activity of Proteinase K”. For the same molecule, the “nucleic acid released, surfactant” value with Liver tissue [4] is reported as “less nucleic acid was released”.

In the case of `CCCCCCCCCCCC(=O)N(C)CC(=O)[O-].[Na+]` [Sarkosyl, sodium N-lauroylsacrosinate], in the data set with slices of liver (No Proteinase K, 72 hr, additive 2%), the “maceration of liver slice” value is reported as 0%. Besides, the “release of A260 absorbing material” value with Liver tissue [2] is recorded as “released A260 absorbing material”.

With “polyoxyethylenesorbitan monolaurate [Tween 20]”, the “concentration at which the amount of DNA recovered increased significantly” value in the data set with Calf thymus genomic DNA (0% DTAB, FIG. 21) is “at least 1%”. The “concentration that substantially blocked the inhibitory effect of the cationic surfactant” value with Calf thymus genomic DNA (1% DTAB, FIG. 22) was “at least 2%”; in the data set with Calf thymus genomic DNA (4% DTAB, FIG. 23), “at least 4%”. For the same molecule, the “Result (solubilization of the CTAB: nucleic acid precipitate)” value in data set [6] is reported as “neither NaCl nor Tween 20, used alone, solubilized the precipitate”. For the same molecule, the Solubility of surfactant entry in data set [3] (4 M GuHCl, Urea, pH 6.0) is reported as “S”; in data set [3] (4 M GuHCl, Urea, pH 10.0) it was “S”; in [3] (4 M KI, Urea, pH 6.0), “S”; in data set [3] (4 M KI, Urea, pH 10.0), “S”; in data set [3] (6 M GuHCl, pH 6.0), “S”; in [3] (6 M GuHCl, pH 10.0) it was “S”. Also, the Solubility of surfactant result in data set [3] (6 M NaI, pH 10.0) is “S”.
